Results taken from patent US20260274865A1, “Fused Ring Compound and Preparation Method Therefor and Use Thereof” (SICHUAN KELUN-BIOTECH BIOPHARMACEUTICAL CO., LTD., priority 2023, published 2026).
Like-named read-outs stand apart in the source and are kept apart here.

Assays:
Format in all cases: cell-based
[1] = tested on: NCI-N87 human gastric cancer cells; test: Inhibitory effects of compounds on NCI-N87 cell proliferation (Cell Counting-Lite 2.0, 72 h); conditions: NCI-N87, 72 h
Description: (1) Cell plating: First, tumor cells NCI-N87 were cultured in the corresponding culture medium, the cells were digested with trypsin, and the cells were resuspended after centrifugation and counted. The cells were adjusted to an appropriate concentration for plating.
(§1) Co-incubation of the compound of the present invention and tumor cells: After the cells adhered, the culture medium was removed from the cell culture plates, and the diluted biologically active molecule (the compound of the present invention) was added to the wells of the above plate, and incubated for 72 hours.
(§2) Detection of in vitro cell activity: After the incubation was completed, 50 μL of Cell Counting-Lite™ 2.0 reagent (Vazyme) was added to each well, shaken and mixed well in the dark to perform the reaction for 10 minutes, then the detection was carried out, and a microplate reader (manufacturer: BMG, model: PHERAStar-FS) was used for reading. The background RLU was obtained using Cell Counting-Lite™ reagent in cell-free culture medium, and the solvent RLU was obtained using Cell Counting-Lite™ reagent in cell-containing culture medium. […] RLU: relative light unit.

HT29 colon cancer cells = test: Inhibitory effect of compounds on HT29 cell proliferation (Cell Counting-Lite 2.0, 72 h); conditions: Homo sapiens
Description: (1) Cell plating: First, tumor cells HT29 were cultured in the corresponding culture medium, the cells were digested with trypsin, and the cells were resuspended after centrifugation and counted. The cells were adjusted to an appropriate concentration for plating.
as §1, §2

HCC1954 cells = test: Inhibitory effect of compounds on proliferation of HCC1954 cells (Cell Counting-Lite 2.0, 72 h); conditions: Homo sapiens
Description: (1) Cell plating: First, tumor cells HCC1954 were cultured in the corresponding culture medium, the cells were digested with trypsin, and the cells were resuspended after centrifugation and counted. The cells were adjusted to an appropriate concentration for plating.
as §1, §2

[2] = tested on: NCI-H1975 human non-small cell lung cancer cells; test: Inhibitory effect of compounds on proliferation of NCI-H1975 cells (Cell Counting-Lite 2.0, 72 h); conditions: Table 10, incubated for 72 hours
Description: (1) Cell plating: First, tumor cells NCI-H1975 were cultured in the corresponding culture medium, the cells were digested with trypsin, and the cells were resuspended after centrifugation and counted. The cells were adjusted to an appropriate concentration for plating.
as §1, §2

[3] = tested on: HCC827 human non-small cell lung cancer cells; test: Inhibitory effect of compounds on HCC827 cell proliferation (Cell Counting-Lite 2.0, 72 h); conditions: Table 6, incubated for 72 hours, read-out: Inhibition activity of compounds on proliferation of HCC827 cells IC50
Description: (1) Cell plating: First, tumor cells HCC827 were cultured in the corresponding culture medium, the cells were digested with trypsin, and the cells were resuspended after centrifugation and counted. The cells were adjusted to an appropriate concentration for plating.
as §1, §2

[4] = Table 2-2, incubated for 72 hours
[5] = HT-29, Table 4-2, incubated for 72 hours
[6] = Table 8-2, incubated for 72 hours, read-out: Inhibitory activity of compounds on proliferation of HCC1954 cells IC50
[7] = Table 2-1, incubated for 72 hours
[8] = HT-29, Table 4-1, incubated for 72 hours
[9] = Table 8-1, incubated for 72 hours, read-out: Inhibition activity of compounds on proliferation of HCC1954 cells IC50

COc1cc2c(cc1OCCCCCOc1cc3c(cc1OC)C(=O)N1CC4(CC4)C[C@H]1CN3)NC[C@@H]1CC(c3ccc(O)cc3)=CN1C2=O [Compound 7-3, (S)-8-((5-(((S)-2-(4-Hydroxyphenyl)-7-methoxy-5-oxo-5,10,11,11a-tetrahydro-1H-benzo[e]pyrrolo[1,2-a][1,4]diazepin-8-yl)oxy)pentyl)oxy)-7-methoxy-1,10,11,11a-tetrahydro-3H,5H-spiro[benzo[e]pyrrolo[1,2-a][1,4]diazepin-2,1′-cyclopropane]-5-one]
IC50 [1, 4]: 79.3 nM
IC50 (HT29 colon cancer cells; [5]): 10.2 nM
IC50 (HCC1954 cells; [6]): 208 nM
IC50 [2]: 124 nM

COc1cc2c(cc1OCCCCCOc1cc3c(cc1OC)C(=O)N1CC4(CC4)C[C@H]1CN3)NC[C@@H]1CC(c3ccc(N)cc3)=CN1C2=O [Compound 7-5, (S)-8-((5-(((S)-2-(4-Aminophenyl)-7-methoxy-5-oxo-5,10,11,11a-tetrahydro-1H-benzo[e]pyrrolo[1,2-a][1,4]diazepin-8-yl)oxy)pentyl)oxy)-7-methoxy-1,10,11,11-tetrahydro-3H,5H-spiro[benzo[e]pyrrolo[1,2-a][1,4]diazepin-2,1′-cyclopropane]-5-one]
IC50 [1, 7]: 3.2 nM
IC50 [1, 4]: 4.1 nM
IC50 (HT29 colon cancer cells; [8]): 1.4 nM
IC50 (HCC1954 cells; [9]): 25.9 nM
IC50 [3]: 13.1 nM
IC50 [2]: 12.3 nM

COc1cc2c(cc1OCCCCCOc1cc3c(cc1OC)C(=O)N1CC4(CC4)C[C@H]1CN3)NC[C@@H]1CC3(CC3)CN1C2=O [Compound 7-9]
IC50 [1, 7]: 29.7 nM
IC50 (HT29 colon cancer cells; [8]): 14.9 nM
IC50 (HCC1954 cells; [9]): 125 nM
IC50 [3]: 116 nM
IC50 [2]: 107 nM

COc1cc2c(cc1OCCCCCOc1cc3c(cc1OC)C(=O)N1CC(F)(F)C[C@H]1CN3)NC[C@@H]1CC(c3ccc(N)cc3)=CN1C2=O [Compound 7-29, (S)-2-(4-aminophenyl)-8-((5-(((S)-2,2-difluoro-7-methoxy-5-oxo-2,3,5,10,11,11a-hexahydro-1H-benzo[e]pyrrolo[1,2-a][1,4]diazepin-8-yl)oxy)pentyl)oxy)-7-methoxy-1,10,11,11a-tetrahydro-5H-benzo[e]pyrrolo[1,2-a][1,4]diazepin-5-one]
IC50 [1, 4]: 117 nM
IC50 (HCC1954 cells; [6]): 154 nM

COc1cc2c(cc1OCCCCCOc1cc3c(cc1OC)C(=O)N1CC4(CC4)C[C@H]1CN3)NC[C@@H]1C[C@@H](c3ccc(N)cc3)CN1C2=O [Compound 7-34, (S)-8-((5-(((2S,11aS)-2-(4-aminophenyl)-7-methoxy-5-oxo-2,3,5,10,11,11a-hexahydro-1H-benzo[e]pyrrolo[1,2-a][1,4]diazepin-8-yl)oxy)pentyl)oxy)-7-methoxy-1,10,11,11a-tetrahydro-3H,5H-spiro[benzo[e]pyrrolo[1,2-a][1,4]diazepin-2,1′-cyclopropane]-5-one]
IC50 [1, 4]: 120 nM

COc1cc2c(cc1OCCCCCOc1cc3c(cc1OC)C(=O)N1CC4(CC4)C[C@H]1CN3)NC[C@@H]1C[C@H](c3ccc(N)cc3)CN1C2=O [Compound 7-35]
IC50 [1, 4]: 118 nM

COc1cc2c(cc1OCCCCCOc1cc3c(cc1OC)C(=O)N1CC4(CC4)C[C@H]1CN3)NC[C@@H]1CC(c3ccoc3)=CN1C2=O [Compound 7-36, (S)-8-((5-(((S)-2-(furan-3-yl)-7-methoxy-5-oxo-5,10,11,11a-tetrahydro-1H-benzo[e]pyrrolo[1,2-a][1,4]diazepin-8-yl)oxy)pentyl)oxy)-7-methoxy-1,10,11,11a-tetrahydro-3H,5H-spiro[benzo[e]pyrrolo[1,2-a][1,4]diazepin-2,1′-cyclopropane]-5-one]
IC50 [1, 7]: 15.4 nM
IC50 (HT29 colon cancer cells; [8]): 14.7 nM
IC50 (HCC1954 cells; [9]): 144 nM
IC50 [3]: 126 nM
IC50 [2]: 114 nM

COc1cc2c(cc1OCCCCCOc1cc3c(cc1OC)C(=O)N1CC4(CC4)C[C@H]1CN3)NC[C@@H]1CC(c3ccsc3)=CN1C2=O [Compound 7-37, (S)-7-methoxy-8-((5-(((S)-7-methoxy-5-oxo-2-(thien-3-yl)-5,10,11,11a-tetrahydro-1H-benzo[e]pyrrolo[1,2-a][1,4]diazepin-8-yl)oxy)pentyl)oxy)-1,10,11,11a-tetrahydro-3H,5H-spiro[benzo[e]pyrrolo[1,2-a][1,4]diazepin-2,1′-cyclopropane]-5-one]
IC50 [1, 7]: 24.2 nM
IC50 (HT29 colon cancer cells; [8]): 16.2 nM
IC50 (HCC1954 cells; [9]): 148 nM
IC50 [3]: 124 nM
IC50 [2]: 101 nM

COc1cc2c(cc1OCCCCCOc1cc3c(cc1OC)C(=O)N1CC4(CC4)C[C@H]1CN3)NC[C@@H]1CC(c3csc(CO)c3)=CN1C2=O [Compound 7-38, (S)-8-((5-(((S)-2-(5-(hydroxymethyl)thien-3-yl)-7-methoxy-5-oxo-5,10,11,11a-tetrahydro-1H-benzo[e]pyrrolo[1,2-a][1,4]diazepin-8-yl)oxy)pentyl)oxy)-7-methoxy-1,10,11,11a-tetrahydro-3H,5H-spiro[benzo[e]pyrrolo[1,2-a][1,4]diazepin-2,1′-cyclopropane]-5-one]
IC50 [1, 7]: 49.7 nM
IC50 (HT29 colon cancer cells; [8]): 15.4 nM
IC50 (HCC1954 cells; [9]): 695 nM
IC50 [3]: 139 nM
IC50 [2]: 105 nM

COc1ccc(C2=CN3C(=O)c4cc(OC)c(OCCCCCOc5cc6c(cc5OC)C(=O)N5CC(F)(F)C[C@H]5CN6)cc4NC[C@@H]3C2)cc1 [Compound 7-39, (S)-8-((5-(((S)-2,2-difluoro-7-methoxy-5-oxo-2,3,5, 10,11,11a-hexahydro-1H-benzo[e]pyrrolo[1,2-a][1,4]diazepin-8-yl)oxy)pentyl)oxy)-7-methoxy-2-(4-methoxyphenyl)-1,10,11,11a-tetrahydro-5H-benzo[e]pyrrolo[1,2-a][1,4]diazepin-5-one]
IC50 [1, 4]: 11 nM
IC50 (HT29 colon cancer cells; [5]): 9.7 nM
IC50 (HCC1954 cells; [6]): 140 nM
IC50 [2]: 12.3 nM

COc1ccc(C2=CN3C(=O)c4cc(OC)c(OCCCCCOc5cc6c(cc5OC)C(=O)N5C[C@H](O)C[C@H]5CN6)cc4NC[C@@H]3C2)cc1 [Compound 7-40, (S)-8-((5-(((2R,11aS)-2-hydroxy-7-methoxy-5-oxo-2,3,5,10,11,11a-hexahydro-1H-benzo[e]pyrrolo[1,2-a][1,4]diazepin-8-yl)oxy)pentyl)oxy)-7-methoxy-2-(4-methoxyphenyl)-1,10,11,11a-tetrahydro-5H-benzo[e]pyrrolo[1,2-a][1,4]diazepin-5-one]
IC50 [1, 4]: 93.6 nM
IC50 (HCC1954 cells; [6]): 128 nM

C=C1C[C@H]2CNc3cc(OCCCCCOc4cc5c(cc4OC)C(=O)N4C=C(c6ccc(OC)cc6)C[C@H]4CN5)c(OC)cc3C(=O)N2C1 [Compound 7-41, (S)-7-methoxy-8-((5-(((S)-7-methoxy-2-methylene-5-oxo-2,3,5,10,11,11a-hexahydro-1H-benzo[e]pyrrolo[1,2-a][1,4]diazepin-8-yl)oxy)pentyl)oxy)-2-(4-methoxyphenyl)-1,10,11,11a-tetrahydro-5H-benzo[e]pyrrolo[1,2-a][1,4]diazepin-5-one]
IC50 [1, 7]: 12.7 nM
IC50 (HT29 colon cancer cells; [8]): 9.8 nM
IC50 (HCC1954 cells; [9]): 259 nM
IC50 [3]: 225 nM
IC50 [2]: 69.9 nM

COc1ccc(C2=CN3C(=O)c4cc(OC)c(OCCCCCOc5cc6c(cc5OC)C(=O)N5[C@H](CN6)C[C@H]6C[C@H]65)cc4NC(=O)[C@@H]3C2)cc1 [Compound 7-42]
IC50 [1, 4]: 100 nM
IC50 (HT29 colon cancer cells; [5]): 99.7 nM

COc1ccc(C2=CN3C(=O)c4cc(OC)c(OCCCCCOc5cc6c(cc5OC)C(=O)N5[C@H](CN6)C[C@H]6C[C@H]65)cc4NC[C@@H]3C2)cc1 [Compound 7-43, (1aR,9aS,10aR)-5-methoxy-6-((5-(((S)-7-methoxy-2-(4-methoxyphenyl)-5-oxo-5,10,11,11a-tetrahydro-1H-benzo[e]pyrrolo[1,2-a][1,4]diazepin-8-yl)oxy)pentyl)oxy)-1a,8,9,9a,10,10a-hexahydrobenzo[e]cyclopropo[4,5]pyrrolo[1,2-a][1,4]diazepin-3(1H)-one]
IC50 [1, 4]: 10.1 nM
IC50 (HT29 colon cancer cells; [5]): 10.2 nM
